{"source": "patent US20230053119A1", "about": "“FUSION POLYPEPTIDE COMPRISING Fc REGION OF IMMUNOGLOBULIN AND GDF15” (LG CHEM, LTD., priority 2019, published 2023)", "type_in_all_cases": "in vivo", "key": {"[1]": {"tested_on": "DIO mouse model (C57BL/6J-DIO)", "assay": "Weight change in DIO mice after HIgG1-GDF(CRL) / IgG1-GDF(CRL) administration", "conditions": "for Body Weight, Mean: 2.86 nmol/kg s.c. Daily Inj. for 5 days", "experimental": "(§1) The pharmacological effect of the fusion polypeptide produced and purified in Example 1 was tested in mice (C57BL/6J, 6 weeks, male, 100 mice; RaonBio).\n(§2) All the control material and test materials were administered subcutaneously. The administration route of the control material and test materials was selected as a subcutaneous route depending on the clinical intended route of administration.\nThe dose of all the control material and test materials was 5 mL/kg, and the dose by individual was calculated on the basis of the recently measured weight, […] (1 mL). […] For comparison, the control group in which the control material GDF15 was prepared, and for the comparison group in which GDF15 was administered, they were administered once a day for 5 days, 5 times in total, and all administrations were progressed from 9 AM.\nThe weight of each mouse was measured at the day of the start of administration of the test materials (before administration), and then the weight was measured every day (measured by 9 days at maximum). The dose of the test materials was determined on the basis of the most recently measured weight."}, "[2]": {"tested_on": "DIO mouse model (C57BL/6J-DIO)", "assay": "Feed intake in DIO mice after HIgG1-GDF(CRL) / IgG1-GDF(CRL) administration", "conditions": "2.86 nmol/kg s.c. Daily Inj. for 5 days", "experimental": "as §1, §2\nThe dose of all the control material and test materials was 5 mL/kg, and the dose by individual was calculated on the basis of the recently measured weight, and they were administered subcutaneously once at the test start day using a disposable syringe (1 mL). […] For comparison, the control group in which the control material GDF15 was prepared, and for the comparison group in which GDF15 was administered, they were administered once a day for 5 days, 5 times in total, and all administrations were progressed from 9 AM.\n(§3) In addition, after administering the test materials to mice, the feed intake was measured every day, and the amount of feeding was measured using an electronic scale by each breeding box, and then the residual amount was measured to calculate the feed intake a day. Individuals who severely ate the feed were excluded from the measurement."}, "[3]": {"assay": "Pharmacodynamic (PK) test in SD rat, serum concentration by Human GDF15 ELISA", "conditions": "2 mg/kg subcutaneous", "experimental": "For evaluation of pharmacodynamic characteristics when each polypeptide was subcutaneously administered to rats, polypeptide IgG4-GDF or IgG4-GDF(CRL) was subcutaneously administered in an amount of 2 mg/kg, respectively, to SD Rat (Koatech, male, 7 weeks, about 250g; n=3 each; test group), and at a fixed time, blood was collected about […] through a caudal vein. Blood collecting was progressed before administration of the fusion polypeptide, in 1, 2, 4, 8, 24, 48, 72, 96, 168, 240 and 336 hours after administration. As a control group for comparison of pharmacodynamic characteristics, GDF15 (R&D Systems) was subcutaneously administered in an amount of 2 mg/kg by the same method as above to prepare GDF15 administration group.\nAfter administering to SD Rat as above, blood collected by time-point was centrifuged to obtain serum, and ELISA was performed using Human GDF15 Immunoassay (SGD150, R&D Systems), to measure the concentration in serum over time for each polypeptide."}, "[4]": {"tested_on": "DIO mouse model (C57BL/6J-DIO)", "assay": "Weight change in DIO mice after IgG4-GDF / IgG4-GDF(CRL) administration", "conditions": "for Body Weight, Mean: 3 nmol/kg s.c. Daily Inj.", "experimental": "as §1\nThe test materials (IgG4-GDF ? GDF IgG4-GDF(CRL)) and control material\n(§4) Semaglutide (Bachem) were subcutaneously administered. The dose of all the control material and test materials was 5 mL/kg, and the dose by individual was calculated on the basis of the recently measured weight, […] (1 mL). […] For a comparison group in which Semaglutide was administered, Semaglutide were administered every day once a day. All administrations were progressed from 9 AM.\nThe weight of each mouse was measured at the day of the start of administration of the test materials (before administration), and then the weight was measured every day (measured by 19 days at maximum). The dose of the test materials was determined on the basis of the most recently measured weight."}, "[5]": {"tested_on": "DIO mouse model (C57BL/6J-DIO)", "assay": "Feed intake in DIO mice after IgG4-GDF / IgG4-GDF(CRL) administration", "conditions": "3 nmol/kg s.c. Daily Inj.", "experimental": "as §1, §4, §3"}}}
{"substance": "GDF15: control material GDF15 (R&D Systems), Growth/differentiation factor 15 not fused with Fc", "values": [{"measurement": "Body Weight, Mean", "setting": "[1]; Day 0", "value": "100 % of initial"}, {"measurement": "Body Weight, Mean", "setting": "[1]; Day 1", "value": "99 % of initial"}, {"measurement": "Body Weight, Mean", "setting": "[1]; Day 2", "value": "98 % of initial"}, {"measurement": "Body Weight, Mean", "setting": "[1]; Day 3", "value": "97 % of initial"}, {"measurement": "Body Weight, Mean", "setting": "[1]; Day 4", "value": "96 % of initial"}, {"measurement": "Body Weight, Mean", "setting": "[1]; Day 5", "value": "95 % of initial"}, {"measurement": "Body Weight, Mean", "setting": "[1]; Day 6", "value": "95 % of initial"}, {"measurement": "Body Weight, Mean", "setting": "[1]; Day 7", "value": "95 % of initial"}, {"measurement": "Body Weight, Mean", "setting": "[1]; Day 8", "value": "96 % of initial"}, {"measurement": "Body Weight, Mean", "setting": "[1]; Day 9", "value": "97 % of initial"}, {"measurement": "weight loss effect (in words)", "setting": "[1]; daily administration, stopping administration from Day 5", "value": "weight loss effect disappeared from Day 6"}, {"measurement": "Feed intake a day, Mean", "setting": "[2]; Day 0", "value": 2.8}, {"measurement": "Feed intake a day, Mean", "setting": "[2]; Day 1", "value": 2.4}, {"measurement": "Feed intake a day, Mean", "setting": "[2]; Day 2", "value": 2.7}, {"measurement": "Feed intake a day, Mean", "setting": "[2]; Day 3", "value": 2.4}, {"measurement": "Feed intake a day, Mean", "setting": "[2]; Day 4", "value": 2.5}, {"measurement": "Feed intake a day, Mean", "setting": "[2]; Day 5", "value": 2.6}, {"measurement": "Feed intake a day, Mean", "setting": "[2]; Day 6", "value": 2.7}, {"measurement": "Feed intake a day, Mean", "setting": "[2]; Day 7", "value": 3.0}, {"measurement": "Feed intake a day, Mean", "setting": "[2]; Day 8", "value": 3.3}, {"measurement": "Feed intake a day, Mean", "setting": "[2]; Day 9", "value": 3.5}, {"measurement": "AUCextp", "setting": "[3]; [(AUCinf − AUClast)/AUCinf]*100", "value": 0.463, "unit": "%"}, {"measurement": "AUClast", "setting": "[3]; serum", "value": 4860, "unit": "ng·h/mL"}, {"measurement": "Cmax (maximum blood concentration)", "setting": "[3]; serum", "value": 443, "unit": "ng/mL"}, {"measurement": "Tmax (time to reach maximum blood concentration)", "setting": "[3]; serum", "value": 1, "unit": "h"}, {"measurement": "half-life", "setting": "[3]; serum", "value": 19, "unit": "h"}, {"measurement": "t1/2 (elimination half-life)", "setting": "[3]; serum", "value": 19.0, "unit": "h"}, {"measurement": "AUCinf", "setting": "[3]; serum, extrapolated to infinite time", "value": 4880, "unit": "ng·h/mL"}]}
{"substance": "Semaglutide [reference compound]", "values": [{"measurement": "Body Weight, Mean", "setting": "[4]; Day 0", "value": "100 % of initial"}, {"measurement": "Body Weight, Mean", "setting": "[4]; Day 1", "value": "94 % of initial"}, {"measurement": "Body Weight, Mean", "setting": "[4]; Day 2", "value": "91 % of initial"}, {"measurement": "Body Weight, Mean", "setting": "[4]; Day 3", "value": "90 % of initial"}, {"measurement": "Body Weight, Mean", "setting": "[4]; Day 4", "value": "87 % of initial"}, {"measurement": "Body Weight, Mean", "setting": "[4]; Day 5", "value": "87 % of initial"}, {"measurement": "Body Weight, Mean", "setting": "[4]; Day 6", "value": "85 % of initial"}, {"measurement": "Body Weight, Mean", "setting": "[4]; Day 7", "value": "86 % of initial"}, {"measurement": "Body Weight, Mean", "setting": "[4]; Day 8", "value": "83 % of initial"}, {"measurement": "Body Weight, Mean", "setting": "[4]; Day 9", "value": "85 % of initial"}, {"measurement": "Body Weight, Mean", "setting": "[4]; Day 10", "value": "84 % of initial"}, {"measurement": "Body Weight, Mean", "setting": "[4]; Day 11", "value": "82 % of initial"}, {"measurement": "Body Weight, Mean", "setting": "[4]; Day 12", "value": "81 % of initial"}, {"measurement": "Body Weight, Mean", "setting": "[4]; Day 13", "value": "82 % of initial"}, {"measurement": "Body Weight, Mean", "setting": "[4]; Day 14", "value": "81 % of initial"}, {"measurement": "Body Weight, Mean", "setting": "[4]; Day 15", "value": "79 % of initial"}, {"measurement": "Body Weight, Mean", "setting": "[4]; Day 16", "value": "79 % of initial"}, {"measurement": "Body Weight, Mean", "setting": "[4]; Day 17", "value": "78 % of initial"}, {"measurement": "Body Weight, Mean", "setting": "[4]; Day 18", "value": "77 % of initial"}, {"measurement": "Body Weight, Mean", "setting": "[4]; Day 19", "value": "77 % of initial"}, {"measurement": "weight loss (in words)", "setting": "[4]; daily administration", "value": "weight loss was consistent"}, {"measurement": "Feed intake a day, Mean", "setting": "[5]; Day 0", "value": 3.7}, {"measurement": "Feed intake a day, Mean", "setting": "[5]; Day 1", "value": 2.1}, {"measurement": "Feed intake a day, Mean", "setting": "[5]; Day 2", "value": 3.3}, {"measurement": "Feed intake a day, Mean", "setting": "[5]; Day 3", "value": 2.8}, {"measurement": "Feed intake a day, Mean", "setting": "[5]; Day 4", "value": 2.3}, {"measurement": "Feed intake a day, Mean", "setting": "[5]; Day 5", "value": 2.9}, {"measurement": "Feed intake a day, Mean", "setting": "[5]; Day 6", "value": 2.7}, {"measurement": "Feed intake a day, Mean", "setting": "[5]; Day 7", "value": 3.2}, {"measurement": "Feed intake a day, Mean", "setting": "[5]; Day 8", "value": 2.4}, {"measurement": "Feed intake a day, Mean", "setting": "[5]; Day 9", "value": 3.7}, {"measurement": "Feed intake a day, Mean", "setting": "[5]; Day 10", "value": 2.7}, {"measurement": "Feed intake a day, Mean", "setting": "[5]; Day 11", "value": 2.5}, {"measurement": "Feed intake a day, Mean", "setting": "[5]; Day 12", "value": 2.4}, {"measurement": "Feed intake a day, Mean", "setting": "[5]; Day 13", "value": 3.0}, {"measurement": "Feed intake a day, Mean", "setting": "[5]; Day 14", "value": 2.5}, {"measurement": "Feed intake a day, Mean", "setting": "[5]; Day 15", "value": 2.1}, {"measurement": "Feed intake a day, Mean", "setting": "[5]; Day 16", "value": 2.5}, {"measurement": "Feed intake a day, Mean", "setting": "[5]; Day 17", "value": 2.0}, {"measurement": "Feed intake a day, Mean", "setting": "[5]; Day 18", "value": 2.2}, {"measurement": "Feed intake a day, Mean", "setting": "[5]; Day 19", "value": 3.7}]}
